{"source": "ChEMBL document CHEMBL4414672", "about": "“Synthesis of certain benzothieno[3,2-d]pyrimidine derivatives as a selective SIRT2 inhibitors” (Eur J Med Chem, 2020)", "type_in_all_cases": "functional", "key": {"[1]": {"test_system": "CAKI-1", "test": "Growth inhibition of human Caki1 cells at 10^-5 M incubated for 48 hrs by sulforhodamine B assay", "settings": "CAKI-1, 48 h, read-out: GI"}, "[2]": {"test_system": "SK-MEL-5", "test": "Growth inhibition of human SK-MEL-5 cells at 10^-5 M incubated for 48 hrs by sulforhodamine B assay", "settings": "SK-MEL-5, 48 h, read-out: GI"}, "[3]": {"test_system": "OVCAR-3", "test": "Growth inhibition of human OVCAR3 cells at 10^-5 M incubated for 48 hrs by sulforhodamine B assay", "settings": "OVCAR-3, 48 h, read-out: GI"}, "[4]": {"test_system": "UACC-62", "test": "Growth inhibition of human UACC62 cells at 10^-5 M incubated for 48 hrs by sulforhodamine B assay", "settings": "UACC-62, 48 h, read-out: GI"}, "[5]": {"test_system": "COLO 205", "test": "Growth inhibition of human COLO205 cells at 10^-5 M incubated for 48 hrs by sulforhodamine B assay", "settings": "COLO 205, 48 h, read-out: GI"}, "[6]": {"test_system": "A498", "test": "Growth inhibition of human A498 cells at 10^-5 M incubated for 48 hrs by sulforhodamine B assay", "settings": "A498, 48 h, read-out: GI"}, "[7]": {"test_system": "PC-3", "test": "Growth inhibition of human PC3 cells at 10^-5 M incubated for 48 hrs by sulforhodamine B assay", "settings": "PC-3, 48 h, read-out: GI"}, "[8]": {"test_system": "MDA-MB-468", "test": "Growth inhibition of human MDA-MB-468 cells at 10^-5 M incubated for 48 hrs by sulforhodamine B assay", "settings": "MDA-MB-468, 48 h, read-out: GI"}, "[9]": {"test_system": "NCI/ADR-RES", "test": "Growth inhibition of human NCI/ADR-RES cells at 10^-5 M incubated for 48 hrs by sulforhodamine B assay", "settings": "read-out: GI"}, "[10]": {"test_system": "HCC 2998", "test": "Growth inhibition of human HCC2998 cells at 10^-5 M incubated for 48 hrs by sulforhodamine B assay", "settings": "HCC 2998, 48 h, read-out: GI"}, "[11]": {"test_system": "SF-268", "test": "Growth inhibition of human SF268 cells at 10^-5 M incubated for 48 hrs by sulforhodamine B assay", "settings": "SF-268, 48 h, read-out: GI"}, "[12]": {"test_system": "UACC-257", "test": "Growth inhibition of human UACC257 cells at 10^-5 M incubated for 48 hrs by sulforhodamine B assay", "settings": "UACC-257, 48 h, read-out: GI"}, "[13]": {"test_system": "SR", "test": "Growth inhibition of human SR cells at 10^-5 M incubated for 48 hrs by sulforhodamine B assay", "settings": "read-out: GI"}, "[14]": {"test_system": "HOP-92", "test": "Growth inhibition of human HOP92 cells at 10^-5 M incubated for 48 hrs by sulforhodamine B assay", "settings": "HOP-92, 48 h, read-out: GI"}, "[15]": {"test_system": "ACHN", "test": "Growth inhibition of human ACHN cells at 10^-5 M incubated for 48 hrs by sulforhodamine B assay", "settings": "read-out: GI"}, "[16]": {"test_system": "SK-OV-3", "test": "Growth inhibition of human SKOV3 cells at 10^-5 M incubated for 48 hrs by sulforhodamine B assay", "settings": "SK-OV-3, 48 h, read-out: GI"}, "[17]": {"test_system": "NCI-H23", "test": "Growth inhibition of human NCI-H23 cells at 10^-5 M incubated for 48 hrs by sulforhodamine B assay", "settings": "NCI-H23, 48 h, read-out: GI"}, "[18]": {"test_system": "EKVX", "test": "Growth inhibition of human EKVX cells at 10^-5 M incubated for 48 hrs by sulforhodamine B assay", "settings": "read-out: GI"}, "[19]": {"test_system": "TK-10", "test": "Growth inhibition of human TK10 cells at 10^-5 M incubated for 48 hrs by sulforhodamine B assay", "settings": "TK-10, 48 h, read-out: GI"}, "[20]": {"test_system": "SN12C", "test": "Growth inhibition of human SN12C cells at 10^-5 M incubated for 48 hrs by sulforhodamine B assay", "settings": "read-out: GI"}, "[21]": {"test_system": "Hs-578T", "test": "Growth inhibition of human Hs 578T cells at 10^-5 M incubated for 48 hrs by sulforhodamine B assay", "settings": "read-out: GI"}, "[22]": {"test_system": "A549", "test": "Growth inhibition of human A549/ATCC cells at 10^-5 M incubated for 48 hrs by sulforhodamine B assay", "settings": "A549, 48 h, read-out: GI"}, "[23]": {"test_system": "OVCAR-5", "test": "Growth inhibition of human OVCAR5 cells at 10^-5 M incubated for 48 hrs by sulforhodamine B assay", "settings": "OVCAR-5, 48 h, read-out: GI"}, "[24]": {"test_system": "NCI-H226", "test": "Growth inhibition of human NCI-H226 cells at 10^-5 M incubated for 48 hrs by sulforhodamine B assay", "settings": "NCI-H226, 48 h, read-out: GI"}, "[25]": {"test_system": "BT-549", "test": "Growth inhibition of human BT549 cells at 10^-5 M incubated for 48 hrs by sulforhodamine B assay", "settings": "BT-549, 48 h, read-out: GI"}, "[26]": {"test_system": "Malme-3M", "test": "Growth inhibition of human MALME-3M cells at 10^-5 M incubated for 48 hrs by sulforhodamine B assay", "settings": "read-out: GI"}, "[27]": {"test_system": "SW-620", "test": "Growth inhibition of human SW620 cells at 10^-5 M incubated for 48 hrs by sulforhodamine B assay", "settings": "SW-620, 48 h, read-out: GI"}, "[28]": {"test_system": "HT-29", "test": "Growth inhibition of human HT-29 cells at 10^-5 M incubated for 48 hrs by sulforhodamine B assay", "settings": "HT-29, 48 h, read-out: GI"}, "[29]": {"test_system": "OVCAR-8", "test": "Growth inhibition of human OVCAR8 cells at 10^-5 M incubated for 48 hrs by sulforhodamine B assay", "settings": "OVCAR-8, 48 h, read-out: GI"}, "[30]": {"test_system": "IGROV-1", "test": "Growth inhibition of human IGROV1 cells at 10^-5 M incubated for 48 hrs by sulforhodamine B assay", "settings": "IGROV-1, 48 h, read-out: GI"}, "[31]": {"test_system": "DU-145", "test": "Growth inhibition of human DU145 cells at 10^-5 M incubated for 48 hrs by sulforhodamine B assay", "settings": "DU-145, 48 h, read-out: GI"}, "[32]": {"test_system": "MDA-MB-231", "test": "Growth inhibition of human MDA-MB-231 cells at 10^-5 M incubated for 48 hrs by sulforhodamine B assay", "settings": "MDA-MB-231, 48 h, read-out: GI"}, "[33]": {"test_system": "SNB-75", "test": "Growth inhibition of human SNB75 cells at 10^-5 M incubated for 48 hrs by sulforhodamine B assay", "settings": "SNB-75, 48 h, read-out: GI"}, "[34]": {"test_system": "K562", "test": "Growth inhibition of human K562 cells at 10^-5 M incubated for 48 hrs by sulforhodamine B assay", "settings": "K562, 48 h, read-out: GI"}, "[35]": {"test_system": "NCI-H322M", "test": "Growth inhibition of human NCI-H322M cells at 10^-5 M incubated for 48 hrs by sulforhodamine B assay", "settings": "read-out: GI"}, "[36]": {"test_system": "M14", "test": "Growth inhibition of human M14 cells at 10^-5 M incubated for 48 hrs by sulforhodamine B assay", "settings": "M14, 48 h, read-out: GI"}, "[37]": {"test_system": "RXF 393", "test": "Growth inhibition of human RXF393 cells at 10^-5 M incubated for 48 hrs by sulforhodamine B assay", "settings": "RXF 393, 48 h, read-out: GI"}, "[38]": {"test_system": "MCF7", "test": "Growth inhibition of human MCF7 cells at 10^-5 M incubated for 48 hrs by sulforhodamine B assay", "settings": "MCF7, 48 h, read-out: GI"}, "[39]": {"test_system": "U-251", "test": "Growth inhibition of human U251 cells at 10^-5 M incubated for 48 hrs by sulforhodamine B assay", "settings": "U-251, 48 h, read-out: GI"}}, "data": [{"smiles": "O=C1Nc2c(sc3ccc(Cl)cc23)C(c2ccc3ccccc3c2)N1", "note": "(centres undefined)", "values": [{"measurement": "inhibition of growth at 10 µM", "setting": "[1]", "result": 23.3, "unit": "%"}, {"measurement": "inhibition of growth at 10 µM", "setting": "[2]", "result": 1.82, "unit": "%"}, {"measurement": "inhibition of growth at 10 µM", "setting": "[3]", "result": 3.83, "unit": "%"}, {"measurement": "inhibition of growth at 10 µM", "setting": "[4]", "result": -1.09, "unit": "%"}, {"measurement": "inhibition of growth at 10 µM", "setting": "[5]", "result": -6.54, "unit": "%"}, {"measurement": "inhibition of growth at 10 µM", "setting": "[6]", "result": 15.2, "unit": "%"}, {"measurement": "inhibition of growth at 10 µM", "setting": "[7]", "result": 7.25, "unit": "%"}, {"measurement": "inhibition of growth at 10 µM", "setting": "[8]", "result": -13.7, "unit": "%"}, {"measurement": "inhibition of growth at 10 µM", "setting": "[9]", "result": -2.33, "unit": "%"}, {"measurement": "inhibition of growth at 10 µM", "setting": "[10]", "result": -14.6, "unit": "%"}, {"measurement": "inhibition of growth at 10 µM", "setting": "[11]", "result": 6.94, "unit": "%"}, {"measurement": "inhibition of growth at 10 µM", "setting": "[12]", "result": 14.5, "unit": "%"}, {"measurement": "inhibition of growth at 10 µM", "setting": "[13]", "result": 20.9, "unit": "%"}, {"measurement": "inhibition of growth at 10 µM", "setting": "[14]", "result": 24.7, "unit": "%"}, {"measurement": "inhibition of growth at 10 µM", "setting": "[15]", "result": 10.1, "unit": "%"}, {"measurement": "inhibition of growth at 10 µM", "setting": "[16]", "result": 16.8, "unit": "%"}, {"measurement": "inhibition of growth at 10 µM", "setting": "[17]", "result": 11.7, "unit": "%"}, {"measurement": "inhibition of growth at 10 µM", "setting": "[18]", "result": 16.5, "unit": "%"}, {"measurement": "inhibition of growth at 10 µM", "setting": "[19]", "result": 15.4, "unit": "%"}, {"measurement": "inhibition of growth at 10 µM", "setting": "[20]", "result": 10.9, "unit": "%"}, {"measurement": "inhibition of growth at 10 µM", "setting": "[21]", "result": 3.46, "unit": "%"}, {"measurement": "inhibition of growth at 10 µM", "setting": "[22]", "result": 4.41, "unit": "%"}, {"measurement": "inhibition of growth at 10 µM", "setting": "[23]", "result": 8.06, "unit": "%"}, {"measurement": "inhibition of growth at 10 µM", "setting": "[24]", "result": 7.25, "unit": "%"}, {"measurement": "inhibition of growth at 10 µM", "setting": "[25]", "result": -1.2, "unit": "%"}, {"measurement": "inhibition of growth at 10 µM", "setting": "[26]", "result": 17.3, "unit": "%"}, {"measurement": "inhibition of growth at 10 µM", "setting": "[27]", "result": 1.75, "unit": "%"}, {"measurement": "inhibition of growth at 10 µM", "setting": "[28]", "result": -0.76, "unit": "%"}, {"measurement": "inhibition of growth at 10 µM", "setting": "[29]", "result": 6.44, "unit": "%"}, {"measurement": "inhibition of growth at 10 µM", "setting": "[30]", "result": 17.4, "unit": "%"}, {"measurement": "inhibition of growth at 10 µM", "setting": "[31]", "result": -6.96, "unit": "%"}, {"measurement": "inhibition of growth at 10 µM", "setting": "[32]", "result": 14.8, "unit": "%"}, {"measurement": "inhibition of growth at 10 µM", "setting": "[33]", "result": 21.5, "unit": "%"}, {"measurement": "inhibition of growth at 10 µM", "setting": "[34]", "result": 14, "unit": "%"}, {"measurement": "inhibition of growth at 10 µM", "setting": "[35]", "result": 9.44, "unit": "%"}, {"measurement": "inhibition of growth at 10 µM", "setting": "[36]", "result": 6.72, "unit": "%"}, {"measurement": "inhibition of growth at 10 µM", "setting": "[37]", "result": -10.1, "unit": "%"}, {"measurement": "inhibition of growth at 10 µM", "setting": "[38]", "result": 22.5, "unit": "%"}, {"measurement": "inhibition of growth at 10 µM", "setting": "[39]", "result": 1.75, "unit": "%"}]}]}
